Laboratory results from US12502384B2, “Pharmaceutical composition containing nitroxoline prodrug, and preparation method and application therefor” (Jiangsu Yahong Meditech Co., Ltd., priority 2020, dated 2025).

Test: Stability test: impurity content by HPLC (self-control)
Format: physicochemical
Conditions: for Impurity (%)/RRT relative retention time 0.71 / Impurity (%)/RRT relative retention time 0.78 / Impurity (%)/RRT relative retention time 0.83 / Impurity (%)/RRT relative retention time 0.89 / Impurity (%)/RRT relative retention time 0.9 / Impurity (%)/RRT relative retention time 1.06 / Impurity (%)/RRT relative retention time 1.95 / Impurity (%)/RRT relative retention time 0.93 / Impurity (%)/RRT relative retention time 1.97: — = not detected
Procedure: The impurity content of the immediate-release tablets obtained in Examples 1, 3, and 8 was determined respectively to evaluate the stability, and the steps were as follows:
1. Preparation Method for Test Solution I and Test Solution II
About 25 mg of a batch of nitroxoline prodrug was added to a 50 mL volumetric flask, followed by the addition of about 30 mL of acetonitrile. The resulting solution was ultrasonicated for 10 minutes, cooled to room temperature, diluted with acetonitrile to the constant volume, and mixed well. An appropriate amount of the above solution was filtered to obtain test solution I.
According to the above method, another batch of nitroxoline prodrug was used to obtain test solution II.
Test solution I was used to study the impurity content under normal temperature and different storage times (0 h, 6 h, 12 h, 18 h, 24 h), and the impurity content under 2 to 8° C. and a storage time of 24 hours.
Test solution II was used to study the impurity content under two different stability conditions (intermediate condition of 30° C./65% RH and accelerated condition of 40° C./75% RH, as shown in Table 2).
2. […]
3. Preparation Method for 0.2% Self-Control Solution
2 mL of test solution I, test solution II or test solution III was added to a 100 mL volumetric flask, and diluted with acetonitrile to the constant volume. 1 mL of the resulting solution was added to a 10 mL volumetric flask, diluted with acetonitrile to the constant volume, and mixed well to obtain the desired solution.
4. Determination of Impurity Content
Test solution I was placed at room temperature, and samples were collected respectively at 0 h, 6 h, 12 h, 18 h, 24 h. 0.2% self-control solution was formulated. Samples were injected respectively, and the single impurity content and total impurity content in test solution I at each time point were calculated according to the self-control.
Test solution I was placed in a refrigerator (2 to 8° C.), and samples were collected at 24 h. 0.2% self-control solution was formulated. Samples were injected respectively, and the single impurity content and total impurity content in test solution I at this time point were calculated according to the self-control.
Samples were collected from Test solution II at 0 day, at one month under the intermediate condition (30° C./65% RH) and at one month under the accelerated condition (40° C./75% RH). 0.2% self-control solution was formulated. Samples were injected respectively, and the single impurity content and total impurity content in test solution II at this time point were calculated according to the self-control. […]

[1] = Accelerated condition (40° C./75% RH) one month
[2] = Intermediate condition (30° C./65% RH) one month

In the case of `CC(C)C(=O)N1CCC[C@H]1C(=O)OCOc1ccc([N+](=O)[O-])c2cccnc12` [nitroxoline prodrug, (S)-(5-nitroquinolin-8-yloxy)methyl 1-isopropionylpyrrolidine-2-carboxylate], the “Total impurity (%)” value [1] is reported as 1.038%, the “Impurity (%)/RRT relative retention time 0.71” value [1] is reported as 0.005% and the “Impurity (%)/RRT relative retention time 0.78” value [1] is reported as 0.792%. For the same molecule, the “Impurity (%)/RRT relative retention time 0.83” value [1] was 0.02%, the “Impurity (%)/RRT relative retention time 0.89” value [1] was 0.018% and the “Impurity (%)/RRT relative retention time 0.9” value [1] was 0.012%. For the same molecule, the “Impurity (%)/RRT relative retention time 1.06” value [1] was 0.173%, the “Impurity (%)/RRT relative retention time 1.95” value [1] was 0.018% and the “Total impurity (%)” value [2] was 0.333%. For the same molecule, the “Impurity (%)/RRT relative retention time 0.78” value [2] was 0.117%, the “Impurity (%)/RRT relative retention time 0.89” value [2] was 0.018% and the “Impurity (%)/RRT relative retention time 0.9” value [2] was 0.011%. For the same molecule, the “Impurity (%)/RRT relative retention time 1.06” value [2] was 0.169%, the “Impurity (%)/RRT relative retention time 1.95” value [2] was 0.018% and the “Total impurity (%)” value (Storage time 0 h(RT)) was 0.192%. The “Impurity (%)/RRT relative retention time 0.89” value (Storage time 0 h(RT)) was 0.055%, the “Impurity (%)/RRT relative retention time 0.9” value (Storage time 0 h(RT)) was 0.055% and the “Impurity (%)/RRT relative retention time 0.93” value (Storage time 0 h(RT)) was 0.082%. For the same molecule, the “Total impurity (%)” value (Storage time 0 day) was 0.261%, the “Impurity (%)/RRT relative retention time 0.78” value (Storage time 0 day) was 0.042% and the “Impurity (%)/RRT relative retention time 0.89” value (Storage time 0 day) was 0.019%. For the same molecule, the “Impurity (%)/RRT relative retention time 0.9” value (Storage time 0 day) was 0.011%, the “Impurity (%)/RRT relative retention time 1.06” value (Storage time 0 day) was 0.17% and the “Impurity (%)/RRT relative retention time 1.95” value (Storage time 0 day) was 0.019%. The “Total impurity (%)” value (Storage time 6 h(RT)) was 0.739%, the “Impurity (%)/RRT relative retention time 0.71” value (Storage time 6 h(RT)) was 0.18% and the “Impurity (%)/RRT relative retention time 0.89” value (Storage time 6 h(RT)) was 0.059%. The “Impurity (%)/RRT relative retention time 0.9” value (Storage time 6 h(RT)) was 0.069%, the “Impurity (%)/RRT relative retention time 0.93” value (Storage time 6 h(RT)) was 0.091% and the “Impurity (%)/RRT relative retention time 1.95” value (Storage time 6 h(RT)) was 0.089%. The “Impurity (%)/RRT relative retention time 1.97” value (Storage time 6 h(RT)) was 0.251%, the “Total impurity (%)” value (Storage time 12 h(RT)) was 0.733% and the “Impurity (%)/RRT relative retention time 0.71” value (Storage time 12 h(RT)) was 0.176%. For the same molecule, the “Impurity (%)/RRT relative retention time 0.89” value (Storage time 12 h(RT)) was 0.053%, the “Impurity (%)/RRT relative retention time 0.9” value (Storage time 12 h(RT)) was 0.063% and the “Impurity (%)/RRT relative retention time 0.93” value (Storage time 12 h(RT)) was 0.092%. The “Impurity (%)/RRT relative retention time 1.95” value (Storage time 12 h(RT)) was 0.093%, the “Impurity (%)/RRT relative retention time 1.97” value (Storage time 12 h(RT)) was 0.256% and the “Total impurity (%)” value (Storage time 18 h(RT)) was 1.035%. The “Impurity (%)/RRT relative retention time 0.71” value (Storage time 18 h(RT)) was 0.174%, the “Impurity (%)/RRT relative retention time 0.83” value (Storage time 18 h(RT)) was 0.377% and the “Impurity (%)/RRT relative retention time 0.89” value (Storage time 18 h(RT)) was 0.054%. For the same molecule, the “Impurity (%)/RRT relative retention time 0.9” value (Storage time 18 h(RT)) was 0.057%, the “Impurity (%)/RRT relative retention time 0.93” value (Storage time 18 h(RT)) was 0.092% and the “Impurity (%)/RRT relative retention time 1.95” value (Storage time 18 h(RT)) was 0.065%. The “Impurity (%)/RRT relative retention time 1.97” value (Storage time 18 h(RT)) was 0.216%, the “Total impurity (%)” value (Storage time 24 h(2-8° C.)) was 0.608% and the “Impurity (%)/RRT relative retention time 0.71” value (Storage time 24 h(2-8° C.)) was 0.175%. For the same molecule, the “Impurity (%)/RRT relative retention time 0.83” value (Storage time 24 h(2-8° C.)) was 0.189%, the “Impurity (%)/RRT relative retention time 0.89” value (Storage time 24 h(2-8° C.)) was 0.053% and the “Impurity (%)/RRT relative retention time 0.9” value (Storage time 24 h(2-8° C.)) was 0.064%. The “Impurity (%)/RRT relative retention time 0.93” value (Storage time 24 h(2-8° C.)) was 0.088%, the “Impurity (%)/RRT relative retention time 1.06” value (Storage time 24 h(2-8° C.)) was 0.039% and the “Total impurity (%)” value (Storage time 24 h(RT)) was 1.254%. The “Impurity (%)/RRT relative retention time 0.71” value (Storage time 24 h(RT)) was 0.177%, the “Impurity (%)/RRT relative retention time 0.83” value (Storage time 24 h(RT)) was 0.524% and the “Impurity (%)/RRT relative retention time 0.89” value (Storage time 24 h(RT)) was 0.054%. The “Impurity (%)/RRT relative retention time 0.9” value (Storage time 24 h(RT)) was 0.053%, the “Impurity (%)/RRT relative retention time 0.93” value (Storage time 24 h(RT)) was 0.09% and the “Impurity (%)/RRT relative retention time 1.95” value (Storage time 24 h(RT)) was 0.097%. For the same molecule, the “Impurity (%)/RRT relative retention time 1.97” value (Storage time 24 h(RT)) was 0.259%.
